Data from patent publication US20100160454A1, “ANTIMICROBIAL AGENTS, COMPOSITIONS AND PRODUCTS CONTAINING THE SAME, AND METHODS OF USING THE COMPOSITIONS AND PRODUCTS” (Eastman Chemical Company, priority 2008, published 2010).

Columns and labels:
Test in all cases: Microbiological challenge testing in BPW broth, graded subculture counts
Format in all cases: cell-based
[1] = tested on: Aeromonas sp. Wild type
Summary of the method: (§1)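 TSB + 1% dextrose cultures, 35 ± 2 °C, ≥96 h. Inoculum calibrated by NTU vs plate counts; challenge at 10^5–10^6 CFU/mL final in BPW/1% dextrose with test material. Triplicates (butoxyethanol in duplicate). Spread plates on PCA, ≥48 h, CFU/mL = count × dilution.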

[2] = tested on: Burkholderia cepacia Wild type; conditions: B. cepacia
Summary of the method: as §1

[3] = tested on: Escherichia coli ATCC 25922; conditions: E. Coli
Summary of the method: as §1

[4] = tested on: Pseudomonas aeruginosa Wild type; conditions: P. aeruginosa
Summary of the method: as §1

[5] = tested on: Staphylococcus aureus ATCC 25923; conditions: S. aureus
Summary of the method: as §1

[6] = tested on: Staphylococcus epidermidis ATCC 12228
Summary of the method: as §1

[7] = tested on: Streptococcus mutans ATCC 35668
Summary of the method: as §1

SMILES: O=C([O-])CN(CCN(CC(=O)[O-])CC(=O)O)CC(=O)O.[Na+].[Na+] [EDTA, Na2EDTA]
- Aeromonas sp growth grade, 3 day ([1]; 0.5% weight/volume): 5 (More than 10,000 colonies estimated (thus more than 100,000 CFU/mL))
- Aeromonas sp growth grade, 14 day ([1]; 0.5% weight/volume): 4 (1000 to 10,000 colonies countable (thus 10,000 CFU/mL to 100,000 CFU/mL))
- Aeromonas sp growth grade, 30 day ([1]; 0.5% weight/volume): 4 (1000 to 10,000 colonies countable (thus 10,000 CFU/mL to 100,000 CFU/mL))
- Aeromonas sp growth grade, 3 day ([1]; 1.25% weight/volume): 4 (1000 to 10,000 colonies countable (thus 10,000 CFU/mL to 100,000 CFU/mL))
- Aeromonas sp growth grade, 14 day ([1]; 1.25% weight/volume): 4 (1000 to 10,000 colonies countable (thus 10,000 CFU/mL to 100,000 CFU/mL))
- Aeromonas sp growth grade, 30 day ([1]; 1.25% weight/volume): 4 (1000 to 10,000 colonies countable (thus 10,000 CFU/mL to 100,000 CFU/mL))
- Aeromonas sp growth grade, 3 day ([1]; 2.5% weight/volume): 3 (100 to 1000 colonies (thus 1000 to 10,000 CFU/mL))
- Aeromonas sp growth grade, 14 day ([1]; 2.5% weight/volume): 2 (52 to 100 colonies counted (thus 520 to 1000 CFU/mL))
- Aeromonas sp growth grade, 30 day ([1]; 2.5% weight/volume): 1 (0 to 51 colonies counted (thus 10 to 510 CFU/mL based on 0.1-mL sample))
- Aeromonas sp growth grade, 3 day ([1]; 5.0% weight/volume): 1 (0 to 51 colonies counted (thus 10 to 510 CFU/mL based on 0.1-mL sample))
- Aeromonas sp growth grade, 14 day ([1]; 5.0% weight/volume): 0
- Aeromonas sp growth grade, 30 day ([1]; 5.0% weight/volume): 0
- Grade ([2]; 0.5% (wt/vol), 3 day): 4 (1000 to 10,000 colonies countable (thus 10,000 CFU/mL to 100,000 CFU/mL))
- Grade ([2]; 0.5% (wt/vol), 14 day): 4 (1000 to 10,000 colonies countable (thus 10,000 CFU/mL to 100,000 CFU/mL))
- Grade ([2]; 0.5% (wt/vol), 30 day): 4 (1000 to 10,000 colonies countable (thus 10,000 CFU/mL to 100,000 CFU/mL))
- Grade ([2]; 1.25% (wt/vol), 3 day): 3 (100 to 1000 colonies (thus 1000 to 10,000 CFU/mL))
- Grade ([2]; 1.25% (wt/vol), 14 day): 2 (52 to 100 colonies counted (thus 520 to 1000 CFU/mL))
- Grade ([2]; 1.25% (wt/vol), 30 day): 2 (52 to 100 colonies counted (thus 520 to 1000 CFU/mL))
- Grade ([2]; 2.5% (wt/vol), 3 day): 1 (0 to 51 colonies counted (thus 10 to 510 CFU/mL based on 0.1-mL sample))
- Grade ([2]; 2.5% (wt/vol), 14 day): 0
- Grade ([2]; 2.5% (wt/vol), 30 day): 0
- Grade ([2]; 5.0% (wt/vol), 3 day): 0
- Grade ([2]; 5.0% (wt/vol), 14 day): 0
- Grade ([2]; 5.0% (wt/vol), 30 day): 0
- Grade ([3]; 0.5% (wt/vol), 3 day): 5 (More than 10,000 colonies estimated (thus more than 100,000 CFU/mL))
- Grade ([3]; 0.5% (wt/vol), 14 day): 5 (More than 10,000 colonies estimated (thus more than 100,000 CFU/mL))
- Grade ([3]; 0.5% (wt/vol), 30 day): 5 (More than 10,000 colonies estimated (thus more than 100,000 CFU/mL))
- Grade ([3]; 1.25% (wt/vol), 3 day): 4 (1000 to 10,000 colonies countable (thus 10,000 CFU/mL to 100,000 CFU/mL))
- Grade ([3]; 1.25% (wt/vol), 14 day): 4 (1000 to 10,000 colonies countable (thus 10,000 CFU/mL to 100,000 CFU/mL))
- Grade ([3]; 1.25% (wt/vol), 30 day): 4 (1000 to 10,000 colonies countable (thus 10,000 CFU/mL to 100,000 CFU/mL))
- Grade ([3]; 2.5% (wt/vol), 3 day): 0
- Grade ([3]; 2.5% (wt/vol), 14 day): 0
- Grade ([3]; 2.5% (wt/vol), 30 day): 0
- Grade ([3]; 5.0% (wt/vol), 3 day): 0
- Grade ([3]; 5.0% (wt/vol), 14 day): 0
- Grade ([3]; 5.0% (wt/vol), 30 day): 0
- Grade ([4]; 0.5% (wt/vol), 3 day): 4 (1000 to 10,000 colonies countable (thus 10,000 CFU/mL to 100,000 CFU/mL))
- Grade ([4]; 0.5% (wt/vol), 13 day): 4 (1000 to 10,000 colonies countable (thus 10,000 CFU/mL to 100,000 CFU/mL))
- Grade ([4]; 0.5% (wt/vol), 30 day): 4 (1000 to 10,000 colonies countable (thus 10,000 CFU/mL to 100,000 CFU/mL))
- Grade ([4]; 1.25% (wt/vol), 3 day): 4 (1000 to 10,000 colonies countable (thus 10,000 CFU/mL to 100,000 CFU/mL))
- Grade ([4]; 1.25% (wt/vol), 13 day): 4 (1000 to 10,000 colonies countable (thus 10,000 CFU/mL to 100,000 CFU/mL))
- Grade ([4]; 1.25% (wt/vol), 30 day): 4 (1000 to 10,000 colonies countable (thus 10,000 CFU/mL to 100,000 CFU/mL))
- Grade ([4]; 2.5% (wt/vol), 3 day): 4 (1000 to 10,000 colonies countable (thus 10,000 CFU/mL to 100,000 CFU/mL))
- Grade ([4]; 2.5% (wt/vol), 13 day): 3 (100 to 1000 colonies (thus 1000 to 10,000 CFU/mL))
- Grade ([4]; 2.5% (wt/vol), 30 day): 4 (1000 to 10,000 colonies countable (thus 10,000 CFU/mL to 100,000 CFU/mL))
- Grade ([4]; 5.0% (wt/vol), 3 day): 0
- Grade ([4]; 5.0% (wt/vol), 13 day): 0
- Grade ([4]; 5.0% (wt/vol), 30 day): 0
- Grade ([5]; 0.5% (wt/vol), 3 day): 4 (1000 to 10,000 colonies countable (thus 10,000 CFU/mL to 100,000 CFU/mL))
- Grade ([5]; 0.5% (wt/vol), 14 day): 4 (1000 to 10,000 colonies countable (thus 10,000 CFU/mL to 100,000 CFU/mL))
- Grade ([5]; 0.5% (wt/vol), 30 day): 4 (1000 to 10,000 colonies countable (thus 10,000 CFU/mL to 100,000 CFU/mL))
- Grade ([5]; 1.25% (wt/vol), 3 day): 2.7
- Grade ([5]; 1.25% (wt/vol), 14 day): 2 (52 to 100 colonies counted (thus 520 to 1000 CFU/mL))
- Grade ([5]; 1.25% (wt/vol), 30 day): 2 (52 to 100 colonies counted (thus 520 to 1000 CFU/mL))
- Grade ([5]; 2.5% (wt/vol), 3 day): 1 (0 to 51 colonies counted (thus 10 to 510 CFU/mL based on 0.1-mL sample))
- Grade ([5]; 2.5% (wt/vol), 14 day): 0.3
- Grade ([5]; 2.5% (wt/vol), 30 day): 0.3
- Grade ([5]; 5.0% (wt/vol), 3 day): 0
- Grade ([5]; 5.0% (wt/vol), 14 day): 0
- Grade ([5]; 5.0% (wt/vol), 30 day): 0
- S. epidermidis growth grade, 3 day ([6]; 0.5% weight/volume): 4 (1000 to 10,000 colonies countable (thus 10,000 CFU/mL to 100,000 CFU/mL))
- S. epidermidis growth grade, 13 day ([6]; 0.5% weight/volume): 3 (100 to 1000 colonies (thus 1000 to 10,000 CFU/mL))
- S. epidermidis growth grade, 30 day ([6]; 0.5% weight/volume): 4 (1000 to 10,000 colonies countable (thus 10,000 CFU/mL to 100,000 CFU/mL))
- S. epidermidis growth grade, 3 day ([6]; 1.25% weight/volume): 2 (52 to 100 colonies counted (thus 520 to 1000 CFU/mL))
- S. epidermidis growth grade, 13 day ([6]; 1.25% weight/volume): 1 (0 to 51 colonies counted (thus 10 to 510 CFU/mL based on 0.1-mL sample))
- S. epidermidis growth grade, 30 day ([6]; 1.25% weight/volume): 0
- S. epidermidis growth grade, 3 day ([6]; 2.5% weight/volume): 0
- S. epidermidis growth grade, 13 day ([6]; 2.5% weight/volume): 0
- S. epidermidis growth grade, 30 day ([6]; 2.5% weight/volume): 0
- S. epidermidis growth grade, 3 day ([6]; 5.0% weight/volume): 0
- S. epidermidis growth grade, 13 day ([6]; 5.0% weight/volume): 0
- S. epidermidis growth grade, 30 day ([6]; 5.0% weight/volume): 0
- S. mutans growth grade, 3 day ([7]; 0.5% weight/volume): 4 (1000 to 10,000 colonies countable (thus 10,000 CFU/mL to 100,000 CFU/mL))
- S. mutans growth grade, 13 day ([7]; 0.5% weight/volume): 4 (1000 to 10,000 colonies countable (thus 10,000 CFU/mL to 100,000 CFU/mL))
- S. mutans growth grade, 30 day ([7]; 0.5% weight/volume): 4 (1000 to 10,000 colonies countable (thus 10,000 CFU/mL to 100,000 CFU/mL))
- S. mutans growth grade, 3 day ([7]; 1.25% weight/volume): 2 (52 to 100 colonies counted (thus 520 to 1000 CFU/mL))
- S. mutans growth grade, 13 day ([7]; 1.25% weight/volume): 2 (52 to 100 colonies counted (thus 520 to 1000 CFU/mL))
- S. mutans growth grade, 30 day ([7]; 1.25% weight/volume): 2 (52 to 100 colonies counted (thus 520 to 1000 CFU/mL))
- S. mutans growth grade, 3 day ([7]; 2.5% weight/volume): 0
- S. mutans growth grade, 13 day ([7]; 2.5% weight/volume): 0
- S. mutans growth grade, 30 day ([7]; 2.5% weight/volume): 0
- S. mutans growth grade, 3 day ([7]; 5.0% weight/volume): 0
- S. mutans growth grade, 13 day ([7]; 5.0% weight/volume): 0
- S. mutans growth grade, 30 day ([7]; 5.0% weight/volume): 0
